The subject of this experiment is L1210 leukemia ip in BDF1 mice, survival T/C. In words: NCI In Vivo Anticancer Drug Screen. Data for tumor model L1210 Leukemia (intraperitoneal) in B6D2F1 (BDF1) mice. The following applies: higher = longer survival. Summed up:
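Antitumor effect is assessed in tumor-bearing animals. Survival in the compound arm is compared with a vehicle-dosed control arm and expressed as their quotient.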

Where [1] appears, read: endpoint: mean survival time, dose: 100.0 mg/kg/injection, schedule: Q04DX002 (ip), vehicle: saline with Tween-80.
The mark [2] stands for this setting: endpoint: mean survival time, dose: 100.0 mg/kg/injection, schedule: Q04DX003 (ip), vehicle: saline with Tween-80.
The mark [3] stands for this setting: endpoint: mean survival time, dose: 200.0 mg/kg/injection, schedule: Q04DX002 (ip), vehicle: saline with Tween-80.
Where [4] appears, read: endpoint: mean survival time, dose: 200.0 mg/kg/injection, schedule: Q04DX003 (ip), vehicle: saline with Tween-80.
Setting [5] is: endpoint: mean survival time, dose: 400.0 mg/kg/injection, schedule: Q04DX003 (ip), vehicle: saline with Tween-80.
The mark [6] stands for this setting: endpoint: mean survival time, dose: 100.0 mg/kg/injection, schedule: Q01DX001 (ip), vehicle: saline.
The mark [7] stands for this setting: endpoint: mean survival time, dose: 200.0 mg/kg/injection, schedule: Q01DX001 (ip), vehicle: saline.
The mark [8] stands for this setting: endpoint: mean survival time, dose: 400.0 mg/kg/injection, schedule: Q01DX001 (ip), vehicle: saline.
Setting [9] is: endpoint: mean survival time, dose: 100.0 mg/kg/injection, schedule: Q04DX003 (ip), vehicle: saline.
Where [10] appears, read: endpoint: mean survival time, dose: 200.0 mg/kg/injection, schedule: Q04DX003 (ip), vehicle: saline.
Setting [11] is: endpoint: mean survival time, dose: 400.0 mg/kg/injection, schedule: Q04DX003 (ip), vehicle: saline.
[12] abbreviates: endpoint: mean survival time, dose: 100.0 mg/kg/injection, schedule: Q04DX003 (ip), vehicle: Klucel (hydroxypropylcellulose) (HPC).
[13] abbreviates: endpoint: mean survival time, dose: 200.0 mg/kg/injection, schedule: Q04DX003 (ip), vehicle: Klucel (hydroxypropylcellulose) (HPC).
The mark [14] stands for this setting: endpoint: mean survival time, dose: 100.0 mg/kg/injection, schedule: Q04DX002 (ip), vehicle: saline.
Setting [15] is: endpoint: mean survival time, dose: 200.0 mg/kg/injection, schedule: Q04DX002 (ip), vehicle: saline.
[16] abbreviates: endpoint: mean survival time, dose: 400.0 mg/kg/injection, schedule: Q04DX002 (ip), vehicle: saline.
Setting [17] is: endpoint: mean survival time, dose: 400.0 mg/kg/injection, schedule: Q04DX003 (ip), vehicle: Klucel (hydroxypropylcellulose) (HPC).
The mark [18] stands for this setting: endpoint: mean survival time, dose: 75.0 mg/kg/injection, schedule: Q01DX001 (ip), vehicle: saline.

Here are results for 25 molecules from PubChem BioAssay AID248 (DTP/NCI, 2004).

Where “and” joins values, the source holds several entries; their conditions need not be identical. Equal entries are not always repeated. Toxic doses and inconclusive results are not listed.

In the case of `O=P(NO)(Oc1ccccc1)Oc1ccccc1`, the T/C (endpoint: mean survival time, dose: 50.0 mg/kg/injection, schedule: Q01DX001 (ip), vehicle: carboxymethylcellulose (CMC)) is 101 % of control; the T/C (endpoint: mean survival time, dose: 100.0 mg/kg/injection, schedule: Q01DX001 (ip), vehicle: carboxymethylcellulose (CMC)) is 95 % of control; the T/C (endpoint: mean survival time, dose: 200.0 mg/kg/injection, schedule: Q01DX001 (ip), vehicle: carboxymethylcellulose (CMC)) is 100 % of control.

On to `CCCCCCCCCCCC(=O)Nc1ccc(NC(C)=O)cc1`, for which the T/C was 96 % of control and 104 % of control (endpoint: mean survival time, dose: 100.0 mg/kg/injection, schedule: Q01DX009 (ip), vehicle: saline with Tween-80); 93 % of control and 94 % of control under setting [1]; 95 % of control under setting [2]; 93 % of control and 96 % of control (endpoint: mean survival time, dose: 200.0 mg/kg/injection, schedule: Q01DX009 (ip), vehicle: saline with Tween-80); 111 % of control and 91 % of control under setting [3]; 108 % of control under setting [4]. The T/C (endpoint: mean survival time, dose: 400.0 mg/kg/injection, schedule: Q01DX009 (ip), vehicle: saline with Tween-80) is 96 % of control; the T/C (endpoint: mean survival time, dose: 400.0 mg/kg/injection, schedule: Q04DX002 (ip), vehicle: saline with Tween-80) was 96 % of control and 102 % of control; the T/C under setting [5] is 95 % of control.

With `Cc1ccc(S(=O)(=O)N2/C(=C/c3ccccc3)C(=O)c3ccccc3-c3ccccc32)cc1`, the T/C is 96 % of control under setting [6], 91 % of control under setting [7] and 90 % of control under setting [8].

Consider `N#CCCc1ccnc2ccccc12`, for which the T/C was 100 % of control under setting [9], 102 % of control under setting [10] and 100 % of control under setting [11].

Take `CC(=O)Nc1c([N+](=O)[O-])ccc(Cl)c1Cl`: the T/C reads like this: under setting [12], 98 % of control; under setting [13], 97 % of control.

With `CCCCNC(=S)Nc1ccccc1`, the T/C by setting is: (endpoint: mean survival time, dose: 75.0 mg/kg/injection, schedule: Q01DX001 (ip), vehicle: other) 117 % of control; (endpoint: mean survival time, dose: 150.0 mg/kg/injection, schedule: Q01DX001 (ip), vehicle: other) 117 % of control; (endpoint: mean survival time, dose: 300.0 mg/kg/injection, schedule: Q01DX001 (ip), vehicle: other) 102 % of control.

Take `NC(=O)NCCC(=O)O`: the T/C is 115 % of control under setting [14], 112 % of control under setting [15] and 101 % of control under setting [16].

As to `Nc1nc(CNc2ccc(Cl)cc2)nc(Nc2ccccc2)n1`, the T/C reads like this: under setting [2], 93 % of control; under setting [4], 89 % of control; under setting [5], 89 % of control.

With `CCCCCCCCCCCCCCCCCCCCCC(=O)Nc1ccn(C2OC(CO)C(O)C2O)c(=O)n1` (stereo not drawn), the T/C is 217 % of control (endpoint: median survival time, dose: 25.0 mg/kg/injection, schedule: Q01DX009 (ip), vehicle: saline with Tween-80); 234 % of control (endpoint: median survival time, dose: 50.0 mg/kg/injection, schedule: Q01DX009 (ip), vehicle: saline with Tween-80); 234 % of control (endpoint: median survival time, dose: 100.0 mg/kg/injection, schedule: Q01DX009 (ip), vehicle: saline with Tween-80); 382 % of control (endpoint: median survival time, dose: 200.0 mg/kg/injection, schedule: Q01DX009 (ip), vehicle: saline with Tween-80); 340 % of control (endpoint: median survival time, dose: 400.0 mg/kg/injection, schedule: Q01DX009 (ip), vehicle: saline with Tween-80).

Regarding `CC(=O)NCCCCNS(=O)(=O)c1ccc(C)cc1`, the T/C under setting [12] is 95 % of control, the T/C under setting [13] is 95 % of control and the T/C under setting [17] is 93 % of control.

Regarding `CN1C2CCCCC1C1CCCCC2[N+]1(C)C`, the T/C under setting [18] was 96 % of control.

Turning to `Cn1c([N+](=O)[O-])cnc1/C=[N+](/C)[O-]`, the T/C is 107 % of control under setting [14], 100 % of control under setting [15] and 107 % of control under setting [16].

On to `N#CSCc1ccccc1Cl`, for which the T/C reads like this: (endpoint: mean survival time, dose: 6.25 mg/kg/injection, schedule: Q04DX003 (ip), vehicle: Klucel (hydroxypropylcellulose) (HPC)) 104 % of control; (endpoint: mean survival time, dose: 12.5 mg/kg/injection, schedule: Q04DX003 (ip), vehicle: Klucel (hydroxypropylcellulose) (HPC)) 104 % of control; (endpoint: mean survival time, dose: 25.0 mg/kg/injection, schedule: Q04DX003 (ip), vehicle: Klucel (hydroxypropylcellulose) (HPC)) 93 % of control; (endpoint: mean survival time, dose: 50.0 mg/kg/injection, schedule: Q04DX003 (ip), vehicle: Klucel (hydroxypropylcellulose) (HPC)) 96 % of control.

As to `Clc1ccc(SCNCc2ccccc2)cc1`, the T/C runs as follows: under setting [6], 100 % of control; under setting [7], 94 % of control; under setting [8], 96 % of control.

Regarding `CCOP(=O)(OCC)Oc1c(Cl)c(Cl)c(O)c(Cl)c1Cl`, the T/C is, setting by setting: under setting [1], 91 % of control; under setting [3], 100 % of control.

As for `C[S+](C)C`, the T/C is 104 % of control (endpoint: mean survival time, dose: 12.0 mg/kg/injection, schedule: Q01DX009 (ip), vehicle: saline); 93 % of control and 100 % of control (endpoint: mean survival time, dose: 25.0 mg/kg/injection, schedule: Q01DX009 (ip), vehicle: saline); 93 % of control (endpoint: mean survival time, dose: 25.0 mg/kg/injection, schedule: Q04DX003 (ip), vehicle: saline); 91 % of control (endpoint: mean survival time, dose: 50.0 mg/kg/injection, schedule: Q01DX009 (ip), vehicle: Klucel (hydroxypropylcellulose) (HPC)); 100 % of control and 98 % of control (endpoint: mean survival time, dose: 50.0 mg/kg/injection, schedule: Q01DX009 (ip), vehicle: saline); 98 % of control (endpoint: mean survival time, dose: 50.0 mg/kg/injection, schedule: Q04DX003 (ip), vehicle: saline). In addition, the T/C is 96 % of control under setting [6]; 90 % of control (endpoint: mean survival time, dose: 100.0 mg/kg/injection, schedule: Q01DX009 (ip), vehicle: saline); 97 % of control and 88 % of control under setting [9].

As for `CNCCc1ccc2cc(OC)c(OC)cc2c1`, under setting [2], the T/C is 91 % of control.

In the case of `CCCCN(CCCC)S(=O)(=O)CCCC`, the T/C under setting [9] is 91 % of control, the T/C under setting [10] is 103 % of control and the T/C under setting [11] is 94 % of control.

For the molecule `c1ccc(-c2ccc(-c3ccccc3)c(-c3ccc4c(c3)CCC4)c2-c2ccccc2)cc1`, the T/C by setting is: under setting [2], 96 % of control; under setting [4], 96 % of control; under setting [5], 89 % of control.

As for `CCCCCCCC/C=C\CCCCCCCC(=O)OCCCCCCCCCCCCC`, the T/C is, setting by setting: (endpoint: mean survival time, dose: 100.0 mg/kg/injection, schedule: Q01DX009 (ip), vehicle: saline sonified) 91 % of control; (endpoint: mean survival time, dose: 200.0 mg/kg/injection, schedule: Q01DX009 (ip), vehicle: saline sonified) 102 % of control; (endpoint: mean survival time, dose: 400.0 mg/kg/injection, schedule: Q01DX009 (ip), vehicle: saline sonified) 93 % of control.

For the molecule `CCCCCCC1CCCCN1` (stereo not drawn), the T/C is 104 % of control (endpoint: mean survival time, dose: 5.0 mg/kg/injection, schedule: Q01DX001 (ip), vehicle: saline); 96 % of control (endpoint: mean survival time, dose: 10.0 mg/kg/injection, schedule: Q01DX001 (ip), vehicle: saline); 103 % of control (endpoint: mean survival time, dose: 12.5 mg/kg/injection, schedule: Q04DX003 (ip), vehicle: saline with Tween-80); 98 % of control (endpoint: mean survival time, dose: 20.0 mg/kg/injection, schedule: Q01DX001 (ip), vehicle: saline); 98 % of control (endpoint: mean survival time, dose: 25.0 mg/kg/injection, schedule: Q04DX003 (ip), vehicle: saline with Tween-80); 96 % of control (endpoint: mean survival time, dose: 40.0 mg/kg/injection, schedule: Q01DX001 (ip), vehicle: saline). In addition, for the setting “endpoint: mean survival time, dose: 50.0 mg/kg/injection, schedule: Q04DX003 (ip), vehicle: saline with Tween-80”, the T/C was 103 % of control.

As to `CN1CCC(SC(=O)C(O)(c2ccccc2)c2ccccc2)CC1`, the T/C is 94 % of control under setting [18] and 95 % of control (endpoint: mean survival time, dose: 150.0 mg/kg/injection, schedule: Q01DX001 (ip), vehicle: saline).

For `CC(C)=CCC(=O)NC(=O)NS(=O)(=O)c1ccc(Cl)cc1`, the T/C is, setting by setting: under setting [12], 100 % of control; under setting [13], 177 % of control; under setting [17], 94 % of control.

Consider `CC(=O)N(c1ccccn1)c1ccccn1`, for which the T/C was 106 % of control under setting [6], 97 % of control under setting [9], 104 % of control under setting [7] and 105 % of control under setting [10].

On to `CC(C)=C(Br)c1c(C)cc(C)c(Nc2ccc([N+](=O)[O-])cc2)c1C`, for which the T/C runs as follows: under setting [9], 94 % of control; under setting [10], 91 % of control; under setting [11], 91 % of control.
